“And” between values parts separate entries of the source, which are not always exact repeats. Identical values can stand only once.
What was measured:
Assay type in all cases: in vivo, human
plasma miRNAs = assay: Plasma miRNA qPCR in phase 2 study GS-US-384-1497, miRNAs modulated by SEL treatment
Excerpt: Plasma samples were obtained from 72 subjects enrolled in the GS-US-384-1497 Gilead study. The study is a phase 2 study evaluating the safety, tolerability, and efficacy of selonsertib (ASK1 inhibitor) alone or in combination with simtuzumab (SIM) in subjects with Nonalcoholic Steatohepatitis (NASH) and fibrosis stages F2-F3. The inclusion criteria included patients with metabolic syndrome, serum ALT≥1.5×ULN and ≤5×ULN, and Fibroscan that measures liver stiffness: ≥7 kPa and <12 kPa, or NAS score greater ≥5 with fibrosis stage 2 to 3.
Total RNA samples were isolated and 301 selected miRNA were measured by qPCR. MiRNA expression levels were normalized using the global mean of all expressed miRNAs. Differential expression analyses were performed using limma method; p-values in multiple comparisons were corrected using the Benjamini-Hochberg method. Spearman correlations were calculated between miRNA expression with fibrosis stage and NAS score at baseline and at week 24.
11 miRNAs (hsa-miR-505-3p, hsa-miR-29a-3p, hsa-miR-215-5p, hsa-miR-148a-3p, hsa-miR-99a-5p, hsa-miR-885-5p, hsa-miR-122-5p, hsa-miR-34a-5p, hsa-miR-365a-3p, hsa-miR-194-5p, hsa-miR-155-5p) with nominal […] were modulated by SEL treatment, see Table 2 below.

NASH patients = assay: Safety and efficacy of SIM in NASH patients, studies GS-US-321-0105 and GS-US-321-0106 (fibrosis)
Description: The miR analysis was expanded to using GS-US-321-0105 and GS-US-321-0106 studies where biopsy proven samples were used from NASH patients. These studies had evaluated the safety and efficacy of Simtuzamab (SIM) in NASH patients. […] It was observed that 20% of the samples had fibrosis improvement, 20% fibrosis […] and for the rest of the subjects the fibrosis remained unchanged. As these samples represented the natural history of fibrosis changes, miR expression was analyzed in these samples.
Subjects in GS-US-384-1497 phase 2 trials were enrolled with F2-3 Stages of fibrosis and subjects in GS-US-321-0105 phase 2 trial were enrolled with F3 Stage of fibrosis and GS-US-321-0106 phase 2 trial subjects were enrolled with F4 stage of fibrosis.

plasma miRs = assay: Plasma miR qPCR in GS-US-321-0105 and GS-US-321-0106, association with SIM treatment
Description: Screen failed subjects were included in the analysis to ensure the miRs were analyzed in all the fibrosis stages. The samples analyzed after quality control, which excluded samples that were hemolyzed and samples that had overall low expression of miRs.
Plasma miRs were isolated with spike-in controls using total RNA isolation kit (Exiqon, Denmark). Complementary DNA was synthesized with spike-in control using the Exiqon cDNA synthesis kit and selected plasma miRs (n=157) were measured at BL, W12, and W24 by qPCR using the Exiqon platform (Covance, USA). For the 1497 study, 301 miRs were measured but only 132 miRs were expressed therefore for the 105/106 studies we measured the 132 miRs with 25 additional miRs were measured for the 105/106 study. The data was normalized using Global fit method of normalization.

Row | Molecule | Fold Change miR-29a-3p (plasma miRNAs; 6 mg SEL ± SIM, week 24) | Fold Change miR-34a-5p (plasma miRNAs; 6 mg SEL ± SIM, week 24) | Fold Change miR-99a-5p (plasma miRNAs; 6 mg SEL ± SIM, week 24) | Fold Change miR-122-5p (plasma miRNAs; 6 mg SEL ± SIM, week 24) | Fold Change miR-148a-3p (plasma miRNAs; 6 mg SEL ± SIM, week 24) | Fold Change miR-194-5p (plasma miRNAs; 6 mg SEL ± SIM, week 24) | Fold Change miR-215-5p (plasma miRNAs; 6 mg SEL ± SIM, week 24) | Fold Change miR-365a-3p (plasma miRNAs; 6 mg SEL ± SIM, week 24) | Fold Change miR-505-3p (plasma miRNAs; 6 mg SEL ± SIM, week 24) | Fold Change miR-885-5p (plasma miRNAs; 6 mg SEL ± SIM, week 24) | Fold Change miR-34a-5p (plasma miRNAs; 18 mg SEL ± SIM, week 24) | Fold Change miR-99a-5p (plasma miRNAs; 18 mg SEL ± SIM, week 24) | Fold Change miR-155-5p (plasma miRNAs; 18 mg SEL ± SIM, week 24) | Fold Change miR-885-5p (plasma miRNAs; 18 mg SEL ± SIM, week 24) | number of miRNAs modulated by SEL treatment (plasma miRNAs; GS-US-384-1497, week 24) | effect on fibrosis (NASH patients) | miRs associated with SIM treatment (plasma miRs)
1 | Cc1cc(F)c(C(=O)Nc2cccc(-c3nncn3C(C)C)n2)cc1-n1cnc(C2CC2)c1 [SEL, selonsertib] | −1.23 | −1.54 | −1.33 | −1.42 | −1.28 | −1.30 | −1.27 | −1.65 | −1.24 | −1.37 | −1.33 | −1.25 | 1.33 | −1.56 | 11 and 12 |  | 
2 | simtuzumab (antibody, chains of the INN, looked up, V domains shown) VH: QVQLVQSGAEVKKPGASVKVSCKASGYAFTYYLIEWVRQAPGQGLEWIGVINPGSGGTNYNEKFKGRATITADKSTSTAYMELSSLRSEDTAVYFCARNWMNFDYWGQGTTVTVSS VL: DIVMTQTPLSLSVTPGQPASISCRSSKSLLHSNGNTYLYWFLQKPGQSPQFLIYRMSNLASGVPDRFSGSGSGTDFTLKISRVEAEDVGVYYCMQHLEYPYTFGGGTKVEIK |  |  |  |  |  |  |  |  |  |  |  |  |  |  |  | ineffective at reducing fibrosis | no miRs associated with SIM treatment

Reference: US10495648B2, “Methods of treating liver fibrosis” (GILEAD SCIENCES, INC., priority 2017, dated 2019)
